The text below walks through data of ChEMBL document CHEMBL1145890, “Synthesis, characterization, and in vitro antitumor activity of osteotropic diam(m)ineplatinum(II) complexes bearing a N,N-bis(phosphonomethyl)glycine ligand” (J Med Chem, 2003).

In the experiment the test system is CH1. As to the kind of experiment: Antiproliferative activity in human ovarian cancer cell line (CH1) using MTT assay. The format is functional, cell-based.

With CARBOPLATIN, the IC50 is 2.5 µM.
On to OXALIPLATIN, for which the IC50 is 0.27 µM.

As a reminder, the IC50 is the concentration at which inhibition is half-maximal. A low value points to greater potency in that assay.
